According to patent publication US20180148418A1, “AMIDO-SUBSTITUTED CYCLOHEXANE DERIVATIVES” (Bayer Pharma Aktiengesellschaft, priority 2015, published 2018):

What was measured:
[1] = test system: HEK293 cells cotransfected with the FOP control vector; assay: HEK293 FOP assay (control reporter with non-functional TCF elements); format: cell-based; details: 16 hours
Summary of the method: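 Stable HEK293 line carrying FOP control reporter (randomized non-functional TCF sites, with pcDNA3), Geneticin-selected, plated 24 h before assay. Stimulated with recombinant human Wnt-3a (2500-5 ng/ml) and compounds 50 μM–15 nM (3.16-fold steps) in CAFTY buffer pH 7.4 with 2 mM Ca2+, 0.01% BSA, run parallel to TOP line.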

TNKS2 = target: T1, TNKS2 (Homo sapiens, UniProt Q9H2K2); assay: TNKS2 Assay B (auto-parsylation, [3H]-NAD+ SPA); format: biochemical; details: 6 nM TNKS2, auto-parsylation, over night at room temperature
T1 construct: purchased BPS Bioscience, San Diego, USA 80572 (TNKS2 Histone Ribosylation Assay Kit)
T1 sequence (Q9H2K2 1-1166): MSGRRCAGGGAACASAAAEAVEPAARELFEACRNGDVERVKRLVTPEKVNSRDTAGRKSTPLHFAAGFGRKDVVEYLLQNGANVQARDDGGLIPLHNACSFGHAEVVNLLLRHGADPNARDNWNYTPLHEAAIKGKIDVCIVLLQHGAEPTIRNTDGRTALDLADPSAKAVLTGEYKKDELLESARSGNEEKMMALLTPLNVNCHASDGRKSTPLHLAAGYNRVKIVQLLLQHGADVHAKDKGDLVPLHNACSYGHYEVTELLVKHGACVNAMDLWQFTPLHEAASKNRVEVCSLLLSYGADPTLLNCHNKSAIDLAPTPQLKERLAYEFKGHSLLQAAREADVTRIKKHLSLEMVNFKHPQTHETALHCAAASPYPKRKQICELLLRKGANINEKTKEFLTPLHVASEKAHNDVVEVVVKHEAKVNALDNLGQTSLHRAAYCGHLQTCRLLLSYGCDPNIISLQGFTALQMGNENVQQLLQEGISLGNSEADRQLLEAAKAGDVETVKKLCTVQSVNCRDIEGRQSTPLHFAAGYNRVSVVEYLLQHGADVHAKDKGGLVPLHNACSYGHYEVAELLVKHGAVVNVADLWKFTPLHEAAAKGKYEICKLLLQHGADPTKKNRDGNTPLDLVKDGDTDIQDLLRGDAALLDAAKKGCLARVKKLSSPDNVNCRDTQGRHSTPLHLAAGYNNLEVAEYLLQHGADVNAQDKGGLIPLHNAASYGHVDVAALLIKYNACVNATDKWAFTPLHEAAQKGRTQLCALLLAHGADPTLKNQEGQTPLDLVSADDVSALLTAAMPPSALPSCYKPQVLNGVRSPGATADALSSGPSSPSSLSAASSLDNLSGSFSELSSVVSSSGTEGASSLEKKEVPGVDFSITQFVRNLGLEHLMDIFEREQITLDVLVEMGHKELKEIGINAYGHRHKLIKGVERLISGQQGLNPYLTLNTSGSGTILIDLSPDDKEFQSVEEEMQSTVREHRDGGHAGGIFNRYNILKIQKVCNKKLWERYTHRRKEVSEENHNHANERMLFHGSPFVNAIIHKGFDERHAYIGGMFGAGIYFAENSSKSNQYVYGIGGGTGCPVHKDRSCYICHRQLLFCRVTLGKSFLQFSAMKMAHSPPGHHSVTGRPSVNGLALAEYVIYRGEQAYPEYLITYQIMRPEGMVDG

| SMILES | IC50 ([1]; Homo sapiens) | IC50 (TNKS2) | IC50 [1] |
| --- | --- | --- | --- |
| COCC(C)NC(=O)c1nc[nH]c1C(=O)N[C@H]1CC[C@@]2(CCN(c3ccc(F)cc3Cl)C2=O)CC1 (mixture of isomers) [Example 164, N^5-[(trans)-2-(2-chloro-4-fluorophenyl)-1-oxo-2-azaspiro[4.5]dec-8-yl]-N^4-(1-methoxypropan-2-yl)-1H-imidazole-4,5-dicarboxamide] | ≥ 50000 nM | 28 nM |  |
| Cc1c(C(C)N(C)C)cnc2c(C(=O)N[C@H]3CC[C@H](C(=O)Nc4ccc(F)cc4Cl)CC3)cnn12 (single isomer, unassigned) [Example 56, N-{trans-4-[(2-chloro-4-fluorophenyl)carbamoyl]cyclohexyl}-6-[1-(dimethylamino)ethyl]-7-methylpyrazolo[1,5-a]pyrimidine-3-carboxamide] | ≥ 50000 nM | 370 nM |  |
| Cc1c(C(C)N(C)C)cnc2c(C(=O)N[C@H]3CC[C@H](C(=O)Nc4ccc(F)cc4Cl)CC3)cnn12 (single isomer, unassigned) [Example 57, N-{trans-4-[(2-chloro-4-fluorophenyl)carbamoyl]cyclohexyl}-6-[1-(dimethylamino)ethyl]-7-methylpyrazolo[1,5-a]pyrimidine-3-carboxamide] |  | 160 nM | ≥ 50000 nM |
| CNC(=O)c1nc[nH]c1C(=O)N[C@H]1CC[C@H](C(=O)Nc2cc(F)c(F)cc2Cl)CC1 [Example 3, N^5-{trans-4-[(2-chloro-4,5-difluorophenyl)carbamoyl]cyclohexyl}-N^4-methyl-1H-imidazole-4,5-dicarboxamide] | ≥ 50000 nM | 8.1 nM |  |
| O=C(NCCN1CCCCC1)c1nc[nH]c1C(=O)N[C@H]1CC[C@H](C(=O)Nc2cc(F)c(F)cc2Cl)CC1 [Example 4, N^5-{trans-4-[(2-chloro-4,5-difluorophenyl)carbamoyl]cyclohexyl}-N^4-[2-(piperidin-1-yl)ethyl]-1H-imidazole-4,5-dicarboxamide] | ≥ 50000 nM | 2.1 nM |  |
| CNC(=O)c1nc[nH]c1C(=O)N[C@H]1CC[C@H](C(=O)Nc2cc(OC)c(OC)cc2Cl)CC1 [Example 5, N^5-{trans-4-[(2-chloro-4,5-dimethoxyphenyl)carbamoyl]cyclohexyl}-N^4-methyl-1H-imidazole-4,5-dicarboxamide] | ≥ 50000 nM | 110 nM |  |
| CNC(=O)c1nc[nH]c1C(=O)N[C@H]1CC[C@H](C(=O)Nc2c(F)cc(F)cc2Cl)CC1 [Example 6, N^5-{trans-4-[(2-chloro-4,6-difluorophenyl)carbamoyl]cyclohexyl}-N^4-methyl-1H-imidazole-4,5-dicarboxamide] | ≥ 50000 nM | 60 nM |  |
| CNC(=O)c1nc[nH]c1C(=O)N[C@H]1CC[C@H](C(=O)Nc2ccc(F)cc2Br)CC1 [Example 7, N^5-{trans-4-[(2-bromo-4-fluorophenyl)carbamoyl]cyclohexyl}-N^4-methyl-1H-imidazole-4,5-dicarboxamide] | ≥ 50000 nM | 27 nM |  |
| CNC(=O)c1nc[nH]c1C(=O)N[C@H]1CC[C@H](C(=O)Nc2ccc(F)cc2)CC1 [Example 8, N^5-{trans-4-[(4-fluorophenyl)carbamoyl]cyclohexyl}-N^4-methyl-1H-imidazole-4,5-dicarboxamide] | ≥ 50000 nM | 2300 nM |  |
| CNC(=O)c1nc[nH]c1C(=O)N[C@H]1CC[C@H](C(=O)Nc2ccc(C)cc2Cl)CC1 [Example 9, N^5-{trans-4-[(2-chloro-4-methylphenyl)carbamoyl]cyclohexyl}-N^4-methyl-1H-imidazole-4,5-dicarboxamide] | ≥ 50000 nM | 110 nM |  |
| CNC(=O)c1[nH]cnc1C(=O)NC1CCC(C(=O)Nc2ccc(F)cc2Cl)CC1OC (stereo not drawn) [Example 36, N^4-{(1α,2β,4β)-4-[(2-chloro-4-fluorophenyl)carbamoyl]-2-methoxycyclohexyl}-N^5-methyl-1H-imidazole-4,5-dicarboxamide] |  | > 10000 nM | ≥ 50000 nM |
| CNC(=O)c1[nH]cnc1C(=O)NC1CCC(C(=O)Nc2ccc(F)cc2Cl)CC1OC (stereo not drawn) [Example 37, N^4-{(1α,2β,4β)-4-[(2-chloro-4-fluorophenyl)carbamoyl]-2-methoxycyclohexyl}-N^5-methyl-1H-imidazole-4,5-dicarboxamide] |  | > 10000 nM | ≥ 50000 nM |
| O=C(NCCC1CC1)c1nc[nH]c1C(=O)N[C@H]1CC[C@H](C(=O)Nc2cc(N3CCOCC3)ccc2Cl)CC1 [Example 93, N^5-(trans-4-{[2-chloro-5-(morpholin-4-yl)phenyl]carbamoyl}cyclohexyl)-N^4-(2-cyclopropylethyl)-1H-imidazole-4,5-dicarboxamide] | 12000 nM | 1600 nM |  |
| CC(C)(O)CNC(=O)c1nc[nH]c1C(=O)N[C@H]1CC[C@H](C(=O)Nc2cc(N3CCOCC3)ccc2Cl)CC1 [Example 94, N^5-(trans-4-{[2-chloro-5-(morpholin-4-yl)phenyl]carbamoyl}cyclohexyl)-N^4-(2-hydroxy-2-methylpropyl)-1H-imidazole-4,5-dicarboxamide] | ≥ 50000 nM | 1600 nM |  |
| O=C(NCC(F)(F)F)c1nc[nH]c1C(=O)N[C@H]1CC[C@H](C(=O)Nc2cc(N3CCOCC3)ccc2Cl)CC1 [Example 95, N^5-(trans-4-{[2-chloro-5-(morpholin-4-yl)phenyl]carbamoyl}cyclohexyl)-N^4-(2,2,2-trifluoroethyl)-1H-imidazole-4,5-dicarboxamide] | 39000 nM | 4300 nM |  |
| CNC(=O)c1nc[nH]c1C(=O)N[C@H]1CC[C@H](C(=O)Nc2cnccc2Cl)CC1 [Example 96, N^5-{trans-4-[(4-chloropyridin-3-yl)carbamoyl]cyclohexyl}-N^4-methyl-1H-imidazole-4,5-dicarboxamide] | 18000 nM | 28 nM |  |
| O=C(NCC1CCCO1)c1nc[nH]c1C(=O)N[C@H]1CC[C@H](C(=O)Nc2cnccc2Cl)CC1 (stereo partly drawn) [Example 97, N^5-{trans-4-[(4-chloropyridin-3-yl)carbamoyl]cyclohexyl}-N^4-(tetrahydrofuran-2-ylmethyl)-1H-imidazole-4,5-dicarboxamide] | 18000 nM | 39 nM |  |
| COC(C)(C)CNC(=O)c1nc[nH]c1C(=O)N[C@H]1CC[C@H](C(=O)Nc2cnccc2Cl)CC1 [Example 98, N^5-{trans-4-[(4-chloropyridin-3-yl)carbamoyl]cyclohexyl}-N^4-(2-methoxy-2-methylpropyl)-1H-imidazole-4,5-dicarboxamide] | ≥ 50000 nM | 39 nM |  |
| COCC(C)NC(=O)c1nc[nH]c1C(=O)N[C@H]1CC[C@H](C(=O)Nc2cnccc2Cl)CC1 (stereo partly drawn) [Example 99, N^5-{trans-4-[(4-chloropyridin-3-yl)carbamoyl]cyclohexyl}-N^4-(1-methoxypropan-2-yl)-1H-imidazole-4,5-dicarboxamide] | 20000 nM | 110 nM |  |
| Cc1cc(NC(=O)[C@H]2CC[C@H](NC(=O)c3[nH]cnc3C(=O)NCC(C)(C)O)CC2)c(Cl)cc1F [Example 100, N^5-{trans-4-[(2-chloro-4-fluoro-5-methylphenyl)carbamoyl]cyclohexyl}-N^4-(2-hydroxy-2-methylpropyl)-1H-imidazole-4,5-dicarboxamide] | 39000 nM | 110 nM |  |
| COC(C)(C)CNC(=O)c1nc[nH]c1C(=O)N[C@H]1CC[C@H](C(=O)Nc2cc(C)c(F)cc2Cl)CC1 [Example 101, N^5-{trans-4-[(2-chloro-4-fluoro-5-methylphenyl)carbamoyl]cyclohexyl}-N^4-(2-methoxy-2-methylpropyl)-1H-imidazole-4,5-dicarboxamide] | 35000 nM | 100 nM |  |
